Results from patent US8399512B2, “Biocompatible biodegradable fumagillin analog conjugates” (Mersana Therapeutics, Inc., priority 2007, dated 2013).

What was measured:
[1] = system: human umbilical vein endothelial cells (HUVECs); assay: Inhibitory effect on HUVEC cell growth (MTS/PES colorimetry); format: cell-based; details: cultured 5 days, MTS/PES absorbance 490 nm
Experimental: Using human umbilical vein endothelial cells (HUVECs), the effect of the fumagillin analog conjugates and the fumagillin analogs on cell growth was evaluated.
The HUVECs were added to M199 medium supplemented with 20% FBS, after which the cells were incubated at 37° C. under 5% CO2. 96-well plates were seeded at 5,000 cells/well in a total volume of 100 μL. The cells were left overnight to attach to the plate. Cells were subcultured a maximum of 15 times before being discarded.
To evaluate the inhibitory activity of the fumagillin conjugate or the fumagillin analog alone on the growth of HUVEC cells, the conjugate or fumagillin analog was dissolved in the required amount of 0.9% saline, vortexed briefly to wet and disperse the solids, followed by vortexing for a total of 30 min. […] The cells were treated with the conjugate solution or fumagillin analog solution at various concentrations ranging from 30 nM to 0.01 nM, and cultured for 5 days at 37° C.
Colorimetry was performed to determine the extent of cell growth by adding 20 μL of MTS/PES reagent to each well, incubation for 4 h at 37° C. followed by measuring the absorbance at 490 nm.

B16F10 tumor cells = assay: Tumor growth delay in B16F10 mouse melanoma; format: in vivo; details: IV, q3d × 4, BDF1 mice
Experimental: BDF1 female mice (N=6) with 1×10^6 B16F10 tumor cells positioned subcutaneous in the flank were treated with various fumagillin conjugates of the invention. Tumor growth was monitored in parallel with positive and negative controls of cyclophosphamide and saline respectively. Treatment began when tumors reached an average size of 80-120 mg and tumor volumes were measured two times per week until animals reached an endpoint tumor volume of 2 grams or 45 days, whichever came first. Conjugates were administered as solutions in saline intravenously at dose levels of 30-100 mg/kg (expressed as fumagillin analog equivalents) on a schedule of q3dx4. Treatment outcomes were assessed in terms of percent tumor growth delay (% TGD), (see FIG. 1) defined as the percent increase in median time to endpoint for mice treated with an agent compared to those treated with saline.

[2] = 80 mg/kg fumagillin analog equiv.
[3] = 60 mg/kg fumagillin analog equiv.

Structure (SMILES) | IC50 ([1]; Homo sapiens, 120 h) | other results
COC(=O)C12CCC(C(=O)O[C@@H]3CC[C@]4(CO4)[C@@H](C4(C)O[C@@H]4CC=C(C)C)[C@@H]3OC)(CC1)CC2 (stereo partly drawn) [Compound 1] | < 25 nM | –
CO[C@H]1[C@H](C2(C)O[C@@H]2CC=C(C)C)[C@]2(CC[C@H]1OC(=O)NC(=O)CCl)CO2 (stereo partly drawn) [Compound 2] | < 25 nM | –
COC(=O)[C@@H](N)CSCC(=O)NC(=O)O[C@@H]1CC[C@]2(CO2)[C@@H](C2(C)O[C@@H]2CC=C(C)C)[C@@H]1OC (stereo partly drawn) [Compound 3] | < 25 nM | –
CO[C@H]1[C@H](C2(C)O[C@@H]2CC=C(C)C)[C@]2(CC[C@H]1OC(=O)/C=C/c1ccc(O)cc1)CO2 (stereo partly drawn) [Compound 4] | > 30 nM | –
CO[C@H]1[C@H](C2(C)O[C@@H]2CC=C(C)C)[C@]2(CC[C@H]1OC(=O)NCc1ccccc1)CO2 (stereo partly drawn) [Compound 5] | < 25 nM | –
CO[C@H]1[C@H](C2(C)O[C@@H]2CC=C(C)C)[C@]2(CC[C@H]1OC(=O)N[C@@H](C)c1ccccc1)CO2 (stereo partly drawn) [Compound 6] | < 25 nM | % TGD (B16F10 tumor cells; [2]): 5-20%
CO[C@H]1[C@H](C2(C)O[C@@H]2CC=C(C)C)[C@]2(CC[C@H]1OC(=O)N1CCN(CCO)CC1)CO2 (stereo partly drawn) [Compound 7] | < 25 nM | % TGD (B16F10 tumor cells; [2]): 5-20%
CCN1CCN(C(=O)O[C@@H]2CC[C@]3(CO3)[C@@H](C3(C)O[C@@H]3CC=C(C)C)[C@@H]2OC)CC1 (stereo partly drawn) [Compound 9] | < 25 nM | % TGD (B16F10 tumor cells; 100 mg/kg fumagillin analog equiv.): 20-50%
CO[C@H]1[C@H](C2(C)O[C@@H]2CC=C(C)C)[C@]2(CC[C@H]1OC(=O)N1CCN(C(C)=O)CC1)CO2 (stereo partly drawn) [Compound 10] | < 25 nM | % TGD (B16F10 tumor cells; [3]): 20-50%
CO[C@H]1[C@H](C2(C)O[C@@H]2CC=C(C)C)[C@]2(CC[C@H]1OC(=O)NCCc1ccc(N)cc1)CO2 (stereo partly drawn) [Compound 11] | < 25 nM | % TGD (B16F10 tumor cells; 65 mg/kg fumagillin analog equiv.): 20-50%
CO[C@H]1[C@H](C2(C)O[C@@H]2CC=C(C)C)[C@]2(CC[C@H]1OC(=O)N[C@H](C)c1ccccc1)CO2 (stereo partly drawn) [Compound 12] | < 25 nM | % TGD (B16F10 tumor cells; [2]): 5-20%
CO[C@H]1[C@H](C2(C)O[C@@H]2CC=C(C)C)[C@]2(CC[C@H]1OC(=O)/C=C/c1ccccc1)CO2 (stereo partly drawn) [Compound 13] | > 30 nM | % TGD (B16F10 tumor cells; [2]): 5-20%
COC(=O)[C@@H](N)CSCC(=O)NC(=O)O[C@@H]1CC[C@]2(CO2)[C@@H](C2(C)O[C@@H]2CC=C(C)C)[C@@H]1OC (stereo partly drawn) [Compound 14] | – | IC50 [1]: < 25 nM
CO[C@H]1[C@H](C2(C)O[C@@H]2CC=C(C)C)[C@]2(CC[C@H]1OC(=O)C(=O)N(C)OC)CO2 (stereo partly drawn) [Compound 15] | > 30 nM | % TGD (B16F10 tumor cells; [2]): >50%
COC(=O)C(=O)O[C@@H]1CC[C@]2(CO2)[C@@H](C2(C)O[C@@H]2CC=C(C)C)[C@@H]1OC (stereo partly drawn) [Compound 16] | > 30 nM | % TGD (B16F10 tumor cells; [2]): 20-50%
CO[C@H]1[C@H](C2(C)O[C@@H]2CC=C(C)C)[C@]2(CC[C@H]1OC(=O)NCc1ccc(NC(C)=O)cc1)CO2 (stereo partly drawn) [Compound 17] | < 25 nM | –
CO[C@H]1[C@H](C2(C)O[C@@H]2CC=C(C)C)[C@]2(CC[C@H]1OC(=O)NCCc1ccc(NC(C)=O)cc1)CO2 (stereo partly drawn) [Compound 18] | < 25 nM | % TGD (B16F10 tumor cells; [2]): 5-20%
CO[C@H]1[C@H](C2(C)O[C@@H]2CC=C(C)C)[C@]2(CC[C@H]1NC(=O)c1ccc([N+](=O)[O-])cc1)CO2 (stereo partly drawn) [Compound 19] | < 25 nM | % TGD (B16F10 tumor cells; 40 mg/kg fumagillin analog equiv.): 20-50%
CO[C@@H]1C(=O)CC[C@]2(CO2)[C@H]1C1(C)O[C@@H]1CC=C(C)C (stereo partly drawn) [Compound 20] | < 25 nM | –
COc1cc(/C=C/C(=O)O[C@@H]2CC[C@]3(CO3)[C@@H](C3(C)O[C@@H]3CC=C(C)C)[C@@H]2OC)cc(OC)c1OC (stereo partly drawn) [Compound 21] | < 25 nM | –
CCOC(=O)CCN1CCN(C(=O)O[C@@H]2CC[C@]3(CO3)[C@@H](C3(C)O[C@@H]3CC=C(C)C)[C@@H]2OC)CC1 (stereo partly drawn) [Compound 22] | < 25 nM | % TGD (B16F10 tumor cells; 30 mg/kg fumagillin analog equiv.): 5-20%
COc1ccc2c(ccn2C(=O)O[C@@H]2CC[C@]3(CO3)[C@@H](C3(C)O[C@@H]3CC=C(C)C)[C@@H]2OC)c1 (stereo partly drawn) [Compound 23] | < 25 nM | % TGD (B16F10 tumor cells; [2]): 5-20%
CO[C@H]1[C@H](C2(C)O[C@@H]2CC=C(C)C)[C@]2(CC[C@H]1OC(=O)/C=C/C=C/C=C/C=C/C(=O)O)CO2 (stereo partly drawn) [Compound 24] | < 25 nM | –
CO[C@@H]1[C@H](O)CC[C@]2(CO2)[C@H]1C1(C)O[C@@H]1CC=C(C)C (stereo partly drawn) [Compound 25] | > 30 nM | % TGD (B16F10 tumor cells; [2]): 20-50%

Structure (SMILES) | IC50 ([1]; Homo sapiens, 120 h) | other results
CO[C@H]1[C@H](C2(C)O[C@@H]2CC=C(C)C)[C@]2(CC[C@H]1OC(=O)N1CC3CC1CN3)CO2 (stereo partly drawn) [Compound 26] | < 25 nM | % TGD (B16F10 tumor cells; [3]): 5-20%
COC1=CCC[C@]2(CO2)[C@H]1C1(C)O[C@@H]1CC=C(C)C (stereo partly drawn) [Compound 27] | < 25 nM | % TGD (B16F10 tumor cells; 50 mg/kg fumagillin analog equiv.): 5-20%
CO[C@H]1[C@H](C2(C)O[C@@H]2CC=C(C)C)[C@]2(CC[C@H]1NC(=O)NC(=O)CCl)CO2 (stereo partly drawn) [Compound 28] | < 25 nM | –
CCOC(=O)C1CCC(CNC(=O)O[C@@H]2CC[C@]3(CO3)[C@@H](C3(C)O[C@@H]3CC=C(C)C)[C@@H]2OC)CC1 (stereo partly drawn) [Compound 29] | < 25 nM | –
CO[C@H]1[C@H](C2(C)O[C@@H]2CC=C(C)C)[C@]2(CC[C@H]1OC(=O)NC(=O)CSc1ccc(N)cc1)CO2 (stereo partly drawn) [Compound 30] | < 25 nM | –
CO[C@H]1[C@H](C2(C)O[C@@H]2CC=C(C)C)[C@]2(CC[C@H]1OC(=O)NC(=O)CSc1ccc(C(=O)O)cc1)CO2 (stereo partly drawn) [Compound 34] | < 25 nM | –
CO[C@H]1[C@H](C2(C)O[C@@H]2CC=C(C)C)[C@]2(CC[C@H]1OC(=O)/C=C/c1ccc(OCCN(C)C)cc1)CO2 (stereo partly drawn) [Compound 36] | < 25 nM | –
COc1cc(/C=C/C(=O)N[C@@H]2CC[C@]3(CO3)[C@@H](C3(C)O[C@@H]3CC=C(C)C)[C@@H]2OC)cc(OC)c1OC (stereo partly drawn) [Compound 37] | 25 to 100 nM | –
CO[C@H]1[C@H](C2(C)O[C@@H]2CC=C(C)C)[C@]2(CC[C@H]1NC(=O)C13CCC(C(=O)NCCCOC(=O)[C@H](C)N)(CC1)CC3)CO2 (stereo partly drawn) [Compound 41] | 100 to 300 nM | –
CO[C@H]1[C@H](C2(C)O[C@@H]2CC=C(C)C)[C@]2(CC[C@H]1NC(=O)C13CCC(C(=O)NCCCOC(=O)C4CCCN4)(CC1)CC3)CO2 (stereo partly drawn) [Compound 42] | 100 to 300 nM | –
COC(=O)C12CCC(C(=O)N[C@@H]3CC[C@]4(CO4)[C@@H](C4(C)O[C@@H]4CC=C(C)C)[C@@H]3OC)(CC1)CC2 (stereo partly drawn) [Compound 43] | < 25 nM | –
CO[C@H]1[C@H](C2(C)O[C@@H]2CC=C(C)C)[C@]2(CC[C@H]1NC(=O)CSc1ccc(N)cc1)CO2 (stereo partly drawn) [Compound 45] | < 25 nM | –
COC(=O)c1ccc(C(=O)N[C@@H]2CC[C@]3(CO3)[C@@H](C3(C)O[C@@H]3CC=C(C)C)[C@@H]2OC)cc1 (stereo partly drawn) [Compound 46] | < 25 nM | –
CO[C@H]1[C@H](C2(C)O[C@@H]2CC=C(C)C)[C@]2(CC[C@H]1OC(=O)NS(=O)(=O)N1CCN(C(C)=O)CC1)CO2 (stereo partly drawn) [Compound 47] | < 25 nM | –
CO[C@H]1[C@H](C2(C)O[C@@H]2CC=C(C)C)[C@]2(CC[C@H]1NC(=O)c1ccc(C(=O)NCCCO)cc1)CO2 (stereo partly drawn) [Compound 48] | < 25 nM | –
CO[C@H]1[C@H](C2(C)O[C@@H]2CC=C(C)C)[C@]2(CC[C@H]1NC(=O)C13CCC(C(=O)NCCCOC(=O)[C@@H]4CCCN4)(CC1)CC3)CO2 (stereo partly drawn) [Compound 49] | 100 to 300 nM | –
CO[C@H]1[C@H](C2(C)O[C@@H]2CC=C(C)C)[C@]2(CC[C@H]1OC(=O)NCc1ccc(NC(=O)[C@H](C)N)cc1)CO2 (stereo partly drawn) [Compound 50] | < 25 nM | –
CO[C@H]1[C@H](C2(C)O[C@@H]2CC=C(C)C)[C@]2(CC[C@H]1OC(=O)NC(=O)CSc1cccc(NC(=O)CCC(=O)O)c1)CO2 (stereo partly drawn) [Compound 52] | < 25 nM | –
CO[C@H]1[C@H](C2(C)O[C@@H]2CC=C(C)C)[C@]2(CC[C@H]1NC(=O)N1CCN(CCO)CC1)CO2 (stereo partly drawn) [Compound 53] | 25 to 100 nM | –
CO[C@H]1[C@H](C2(C)O[C@@H]2CC=C(C)C)[C@]2(CC[C@H]1OC(=O)N1CCN(CCOC(=O)CCC(=O)O)CC1)CO2 (stereo partly drawn) [Compound 54] | < 25 nM | –
CO[C@H]1[C@H](C2(C)O[C@@H]2CC=C(C)C)[C@]2(CC[C@H]1OC(=O)N1CCN(CCOC(=O)C3CCCN3C(=O)OCC3c4ccccc4-c4ccccc43)CC1)CO2 (stereo partly drawn) [Compound 55] | < 25 nM | –
CO[C@H]1[C@H](C2(C)O[C@@H]2CC=C(C)C)[C@]2(CC[C@H]1OC(=O)N1CCN(C(=O)[C@H](C)N)CC1)CO2 (stereo partly drawn) [Compound 56] | < 25 nM | –
CO[C@H]1[C@H](C2(C)O[C@@H]2CC=C(C)C)[C@]2(CC[C@H]1NC(=O)NCCc1ccc(N)cc1)CO2 (stereo partly drawn) [Compound 57] | < 25 nM | –
